Consider 5 compounds from EP3958980B1, “TARGETED NOVEL TRIAZOLOTHIADIAZINE DERIVATIVES FOR THE TREATMENT OF LUNG CANCER” (Anadolu Universitesi, priority 2020, dated 2021).

Values after ≈ are worked out from the molar mass of the structure shown. Values joined by “and” are separate entries in the source; they are usually repeats but may differ in a detail not shown here. Identical values can stand only once.

Data set [1] has as its system A549 human lung adenocarcinoma cells. As to the kind of experiment: MTT assay, in vitro cytotoxic activity on A549. The settings on record: for IC50: Homo sapiens, A549, 24 hour incubation, read-out: IC50 values (µg/mL) A549 cell line. The data set is classed as cell-based. As to the method:
(§1) The in vitro cytotoxic effects of the compounds were determined with the MTT assay. For this purpose, MTT test was performed using A549 and CCD-19Lu cell lines. After the cell lines used in the invention were centrifuged following taking them out from liquid nitrogen (-196 °C), the cells were cultured in a CO2 incubator comprising 5% CO2 at 37 °C in flasks containing 10% fetal bovine serum (FBS), where CCD-19Lu cells were cultured with Dulbecco's Modified Eagle's Medium (DMEM) and A549 cells were cultured with Roswell Park Memorial Institute (RPMI). The cells that reach the sufficient number for the assay, were seeded to 96 well plates such that 2×10^3 cells were placed in each well and at the same time, components at concentrations of 1-500 µg/mL were added to cells and they were incubated at 37 °C. At the end of the 24 hour incubation period, the MTT powder (5 mg/mL in 1 × phosphate buffered saline (PBS)) was added to each well (20 µL). After a 2-4 h period under the same conditions, the medium was removed from the plate and 100 µL of DMSO was added to each well to dissolve the dye and kept for 10 minutes. Then the plates were read at a wavelength of 540 nm using ELx808-IU Bio-Tek plate reader. The control cell viability which was not treated with the components was accepted to be 100% and the viability rates of the cells were expressed as %. […] According to the results obtained, the dose range was extended until the IC50 value was determined. MTT assay is a frequently used method which measures the cytotoxic effects of the compounds on the cells by converting the yellow colored MTT stain into purple colored formazan crystals via the mitochondrial succinate dehydrogenase activity. In the cytotoxic activity tests of the compounds, A549 lung adenocarcinoma and CCDLu19 normal lung fibroblast cell lines were used.

For the next data set, the system named is ROCK. Kind of data set: ROCK activity assay on lysates of treated A549 cells. The settings on record: for ROCK Inhibition% / ROCK inhibition (in words): 24 hours; for ROCK Inhibition%: IC50 concentration (9: 5.75; 11: 0.73; 12: 0.80; 14: 2.63; Cisplatin: 23.00 µg/mL); for ROCK inhibition (in words): IC50 and IC50/2 concentrations. The data set is classed as cell-based, human. As to the method: The intracellular COX, Akt and ROCK inhibitory effects of the active compounds determined with the MTT assay, were measured with the colorimetric assay according to the manufacturer's recommendations.
Two wells were used for each sample. 90 µL active ROCK-II positive control and samples were added to the wells of the substrate plate. 10 X kinase solution comprising DTT and ATP was added to 10 µL wells and the kinase reaction was started and the plate was incubated at 30 °C for 30-60 minutes. 50 µL 0.5 M EDTA was added to each well at pH=8.0 and the reaction was stopped. The wells were emptied and they were washed 3 times with 250 µL 1X washing solution. After the final washing, 100 µL anti-phospho-MYPT1 (Thr696) antibody was added. The plate was closed and it was incubated at room temperature for 1 hour on an orbital shaker. After the wells were washed three times again, 100 µL HRP-conjugated secondary antibody was added and it was incubated again at room temperature for 1 hour on an orbital shaker. After the wells were emptied, they were washed 3 times. Then 100 µL of substrate solution was added. It was incubated at room temperature for 5-20 minutes on an orbital shaker. 100 µL of stop solution was added. The absorbance of each well was read at a wavelength of 450 nm in a spectrophotometric microplate reader.

The test system of data set [2] is CCD-19Lu normal lung fibroblast cells. Kind of data set: MTT assay, in vitro cytotoxic activity on CCD-19Lu. The data set is classed as cell-based. The settings on record: for IC50: Homo sapiens, CCD 19Lu, 24 hour incubation, read-out: IC50 values (µg/mL) CCDLul9 cell line. As to the method: as §1, with “determined.” for “determined. MTT assay is a frequently used method which measures the cytotoxic effects of the compounds on the cells by converting the yellow colored MTT stain into purple colored formazan crystals via the mitochondrial succinate dehydrogenase activity. In the cytotoxic activity tests of the compounds, A549 lung adenocarcinoma and CCDLu19 normal lung fibroblast cell lines were used.”
MTT assay is a frequently used method which measures the cytotoxic effects of the compounds on the cells by converting the yellow colored MTT stain into purple colored formazan crystals via the mitochondrial succinate dehydrogenase activity. In the cytotoxic activity tests of the compounds, A549 lung adenocarcinoma and CCDLu19 normal lung fibroblast cell lines were used.
(In general: Formazan colour is commonly taken as a measure of viable cells.)

With `N.N.[Cl][Pt][Cl]` [Cisplatin, reference compound], in data set [1] (24 hour incubation), the “IC50 values (µg/mL) A549 cell line” value was 23.00 ± 1.41 µg/mL. Besides, the “ROCK Inhibition%” value in the data set on ROCK worked out at 29.84±0.16%; in the data set on ROCK (listed as cisplatin) it was 29.84%.
As for `CS(=O)(=O)c1ccc(C2=Nn3c(CCc4ccc5c(c4)OCO5)nnc3SC2)cc1` [Compound 9], in data set [1], the IC50 worked out at 5.75 ± 2.47 µg/mL (≈ 13 µM). For the same compound, in the data set on ROCK, the “ROCK inhibition (in words)” value was “did not exhibit significant ROCK inhibition” and the “ROCK Inhibition%” value came to 6.89±0.44%. In addition, in data set [2], the “cytotoxicity against CCDLu19 cells (in words)” value (shortened to “cytotoxicity”) was “non-cytotoxic” and the IC50 was 102 ± 10.4 µg/mL (≈ 230 µM).
Consider `FC(F)(F)c1ccc(C2=Nn3c(CCc4ccc5c(c4)OCO5)nnc3SC2)cc1` [Compound 11, 3-[2-(1,3-Benzodioxole-5-yl)ethyl]-6-(4-trifluoromethylphenyl)-7H-[1,2,4]triazolo [3,4-b][1,3,4]thiadiazine], for which the IC50 in data set [1] stood at 0.73 ± 0.16 µg/mL (≈ 1.69 µM). In the data set with ROCK, the “ROCK inhibition (in words)” value was “did not exhibit significant ROCK inhibition”. Besides, in data set [2], the “cytotoxicity” value is “non-cytotoxic” and the IC50 stood at 113 ± 5.77 µg/mL (≈ 262 µM).
In the same order, the values of `Fc1cccc(C2=Nn3c(CCc4ccc5c(c4)OCO5)nnc3SC2)c1` [Compound 12, 3-[2-(1,3-Benzodioxole-5-yl)ethyl]-6-(3-fluorophenyl)-7H-[1,2,4]triazolo [3,4-b] [1,3,4]thiadiazine] are 0.8 ± 0.05 µg/mL (≈ 2.09 µM), “did not exhibit significant ROCK inhibition”, “non-cytotoxic” and 34.3 ± 2.08 µg/mL (≈ 89.8 µM).
In the case of `c1ccc(-c2ccc(C3=Nn4c(CCc5ccc6c(c5)OCO6)nnc4SC3)cc2)cc1` [Compound 14, 3-[2-(1,3-Benzodioxole-5-yl)ethyl]-6-(biphenyl-4-yl)-7H-[1,2,4]triazolo[3,4-b] [1,3,4]thiadiazine], the IC50 stood at 2.63 ± 0.72 µg/mL (≈ 5.97 µM) in data set [1] and 65 ± 5 µg/mL (≈ 148 µM) in data set [2]. For the same compound, the “IC50 (ROCK inhibition)” value in the data set with ROCK (24 hours incubation) came out at 2.55 ± 0.21 µg/mL (≈ 5.79 µM). Also, in the data set with ROCK, the “ROCK Inhibition%” value is 53.85% and 53.85±8.85%. Also, in data set [2], the “cytotoxicity” value was “non-cytotoxic”.
